The target of one experiment is T1, human V1a receptor (Homo sapiens, UniProt P37288).
T1 construct: expressed in transfected cells; host or cells: CHO K1 (ATCC), also stably transfected with a modified aequorin
Nature of the experiment: Cellular in vitro assay for determining vasopressin receptor activity, V1a receptor cell line (CHO, aequorin luminescence). Format: cell-based. The note with it: for IC50: CHO cell line transfected with human V1a receptor, [Arg]-vasopressin at EC50 concentration, read-out: IC50 hV1a; for ratio IC50 hV2/hV1a: selectivity ratio IC50 hV2 / IC50 hV1a. Here is the method: (§1) B-1. Cellular In Vitro Assay for Determining Vasopressin Receptor Activity
(§2) The identification of agonists and antagonists of the V1a and V2 vasopressin receptors from humans, rats and dogs as well as the quantification of the activity of the compounds of the invention is carried out using recombinant cell lines. These cell lines originally derive from a hamster's ovary epithelial cell (Chinese Hamster Ovary, CHO K1, ATCC: American Type Culture Collection, Manassas, Va. 20108, USA). The test cell lines constitutively express the human, rat or dog V1a or V2 receptors. In case of the Gαq-coupled V1a receptors, cells are also stably transfected with a modified form of the calcium-sensitive photoproteins aequorin (human and rat V1a) or obelin (dog V1a), which, after reconstitution with the cofactor coelenterazine, emit light when there are increases in free calcium concentrations [Rizzuto R, Simpson A W, Brini M, Pozzan T, Nature 358, 325-327 (1992); Illarionov B A, Bondar V S, Illarionova V A, Vysotski E S, Gene 153 (2), 273-274 (1995)]. The resulting vasopressin receptor cells react to stimulation of the recombinantly expressed V1a receptors by intracellular release of calcium ions, which can be quantified by the resulting photoprotein luminescence. The Gs-coupled V2 receptors are stably transfected into cell lines expressing the gene for firefly luciferase under control of a CRE-responsible promoter. Activation of V2 receptors induces the activation of the CRE-responsive promoter via cAMP increase, thereby inducing the expression of firefly luciferase. The light emitted by photoproteins of V1a cell lines as well as the light emitted by firefly luciferase of V2 cell lines corresponds to the activation or inhibition of the respective vasopressin receptor. The bioluminescence of the cell lines is detected using a suitable luminometer [Milligan G, Marshall F, Rees S, Trends in Pharmacological Sciences 17, 235-237 (1996)].
Vasopressin V1a Receptor Cell Lines:
On the day before the assay, the cells are plated out in culture medium (DMEM/F12, 2% FCS, 2 mM glutamine, 10 mM HEPES, 5 μg/ml coelenterazine) in 384-well microtiter plates and kept in a cell incubator (96% humidity, 5% v/v CO2, 37° C.). On the day of the assay, test compounds in various concentrations are placed for 10 minutes in the wells of the microtiter plate before the agonist [Arg]-vasopressin at EC50 concentration is added. The resulting light signal is measured immediately in a luminometer.
(§3) Table 1A below lists individual IC50 values for the compounds of the invention (including racemic mixtures as well as separated enantiomers) that were obtained from cell lines transfected with the human V1a or V2 receptor: […]

The next experiment deals with T2, human V2 receptor (Homo sapiens, UniProt P30518).
T2 construct: expressed in transfected cells; host or cells: CHO K1 (ATCC) expressing firefly luciferase under a CRE-responsive promoter
T2 sequence (P30518 whole entry): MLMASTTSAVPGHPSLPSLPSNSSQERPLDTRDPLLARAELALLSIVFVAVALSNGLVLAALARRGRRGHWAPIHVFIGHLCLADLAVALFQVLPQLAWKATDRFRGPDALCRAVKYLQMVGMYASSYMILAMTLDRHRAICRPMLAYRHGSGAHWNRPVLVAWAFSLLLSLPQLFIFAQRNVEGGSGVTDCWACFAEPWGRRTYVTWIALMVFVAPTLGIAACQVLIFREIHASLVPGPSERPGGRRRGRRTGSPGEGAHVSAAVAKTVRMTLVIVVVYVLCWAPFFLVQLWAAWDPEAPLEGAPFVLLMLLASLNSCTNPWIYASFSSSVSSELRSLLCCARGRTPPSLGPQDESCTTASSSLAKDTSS
Kind of experiment: Cellular in vitro assay for determining vasopressin receptor activity, V2 receptor cell line (CHO, CRE-luciferase). The experiment is classed as cell-based. The note with it: CHO cell line transfected with human V2 receptor; [Arg8]-vasopressin at EC50 concentration, 3 hours; read-out: IC50 hV2. The protocol: as §1, §2
Vasopressin V2 Receptor Cell Lines:
On the day before the assay, the cells are plated out in culture medium (DMEM/F12, 2% FCS, 2 mM glutamine, 10 mM HEPES) in 384-well microtiter plates and kept in a cell incubator (96% humidity, 5% v/v CO2, 37° C.). On the day of the assay, test compounds in various concentrations and the agonist [Arg^8]-vasopressin at EC50 concentration are added together to the wells, and plates are incubated for 3 hours in a cell incubator. Upon addition of the cell lysis reagent Triton™ and the substrate luciferin, luminescence of firefly luciferase is measured in a luminometer.
as §3

These results are taken from patent publication US11173151B2, “Substituted triazole derivatives and uses thereof” (BAYER AKTIENGESELLSCHAFT, priority 2017, dated 2021).

T1 sequence (P37288 whole entry): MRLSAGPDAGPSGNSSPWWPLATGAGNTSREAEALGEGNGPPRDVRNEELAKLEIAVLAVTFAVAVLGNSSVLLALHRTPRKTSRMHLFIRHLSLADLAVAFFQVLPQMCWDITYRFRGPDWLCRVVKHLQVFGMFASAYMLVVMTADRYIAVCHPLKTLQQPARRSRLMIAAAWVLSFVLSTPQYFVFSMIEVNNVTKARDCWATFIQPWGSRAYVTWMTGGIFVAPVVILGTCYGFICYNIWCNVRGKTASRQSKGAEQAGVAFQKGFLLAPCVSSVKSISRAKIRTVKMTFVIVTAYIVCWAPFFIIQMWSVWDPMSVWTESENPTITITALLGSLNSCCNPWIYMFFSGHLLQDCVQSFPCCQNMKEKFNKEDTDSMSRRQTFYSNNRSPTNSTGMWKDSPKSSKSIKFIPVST

As to `O=C(NCC(O)CO)c1ccccc1-n1cnc(Cn2nc(-c3ccc(Cl)cc3)n(C[C@H](O)C(F)(F)F)c2=O)n1` (mixture of isomers) [Example 297, 2-[3-({3-(4-Chlorophenyl)-5-oxo-4-[(2S)-3,3,3-trifluoro-2-hydroxypropyl]-4,5-dihydro-1H-1,2,4-triazol-1-yl}methyl)-1H-1,2,4-triazol-1-yl]-N-[2,3-dihydroxypropyl]benzamide], on human V1a receptor, the IC50 came out at 0.00505 µM and the “ratio IC50 hV2/hV1a” value worked out at 277.2. The half-inhibitory concentration (IC50) at human V2 receptor amounted to 1.4 µM.
For `O=C(c1ccccc1-n1cnc(Cn2nc(-c3ccc(Cl)cc3)n(C[C@H](O)C(F)(F)F)c2=O)n1)N1CCC(O)C1` (mixture of isomers) [Example 298, 5-(4-Chlorophenyl)-2-{[1-(2-{[3-hydroxypyrrolidin-1-yl]carbonyl}phenyl)-1H-1,2,4-triazol-3-yl]methyl}-4-[(2S)-3,3,3-trifluoro-2-hydroxypropyl]-2,4-dihydro-3H-1,2,4-triazol-3-one] the same measures were 0.0033 µM, 468.2 and 1.54 µM.
On the same counts, the results for `CC1CCCCC1NC(=O)c1ccccc1-n1cnc(Cn2nc(-c3ccc(Cl)cc3)n(C[C@H](O)C(F)(F)F)c2=O)n1` (mixture of isomers) [Example 319, 2-[3-({3-(4-Chlorophenyl)-5-oxo-4-[(2S)-3,3,3-trifluoro-2-hydroxypropyl]-4,5-dihydro-1H-1,2,4-triazol-1-yl}methyl)-1H-1,2,4-triazol-1-yl]-N-(2-methylcyclohexyl)benzamide] are 0.00355 µM, 91.5 and 0.325 µM.
For `CC1CC(C)CN(C(=O)c2ccccc2-n2cnc(Cn3nc(-c4ccc(Cl)cc4)n(C[C@H](O)C(F)(F)F)c3=O)n2)C1` (mixture of isomers) [Example 326, 5-(4-Chlorophenyl)-2-[(1-{2-[(3,5-dimethylpiperidin-1-yl)carbonyl]phenyl}-1H-1,2,4-triazol-3-yl)methyl]-4-[(2S)-3,3,3-trifluoro-2-hydroxypropyl]-2,4-dihydro-3H-1,2,4-triazol-3-one] the same measures were 0.0083 µM, 180.7 and 1.5 µM.
Regarding `CC1CCC(C)N1C(=O)c1ccccc1-n1cnc(Cn2nc(-c3ccc(Cl)cc3)n(C[C@H](O)C(F)(F)F)c2=O)n1` (mixture of isomers) [Example 328, 5-(4-Chlorophenyl)-2-[(1-{2-[(2,5-dimethylpyrrolidin-1-yl)carbonyl]phenyl}-1H-1,2,4-triazol-3-yl)methyl]-4-[(2S)-3,3,3-trifluoro-2-hydroxypropyl]-2,4-dihydro-3H-1,2,4-triazol-3-one], at human V1a receptor, the concentration for half-maximal inhibition (IC50) was 0.00795 µM and the “ratio IC50 hV2/hV1a” value came out at 270.4. In addition, on human V2 receptor, the concentration for half-maximal inhibition (IC50) stood at 2.15 µM.
For `CC1CCCC(C)N1C(=O)c1ccccc1-n1cnc(Cn2nc(-c3ccc(Cl)cc3)n(C[C@H](O)C(F)(F)F)c2=O)n1` (mixture of isomers) [Example 337, 5-(4-Chlorophenyl)-2-[(1-{2-[(2,6-dimethylpiperidin-1-yl)carbonyl]phenyl}-1H-1,2,4-triazol-3-yl)methyl]-4-[(2S)-3,3,3-trifluoro-2-hydroxypropyl]-2,4-dihydro-3H-1,2,4-triazol-3-one] the same measures were 0.0235 µM, 46.2 and 1.08 µM.
Regarding `CC(C)C(C)NC(=O)c1ccccc1-n1cnc(Cn2nc(-c3ccc(Cl)cc3)n(C[C@H](O)C(F)(F)F)c2=O)n1` (mixture of isomers) [Example 345, 2-[3-({3-(4-Chlorophenyl)-5-oxo-4-[(2S)-3,3,3-trifluoro-2-hydroxypropyl]-4,5-dihydro-1H-1,2,4-triazol-1-yl}methyl)-1H-1,2,4-triazol-1-yl]-N-[(2R)-3-methylbutan-2-yl]benzamide], on human V1a receptor, the IC50 is 0.0032 µM and the “ratio IC50 hV2/hV1a” value was found to be 37.2. Further, at human V2 receptor, the 50% inhibitory concentration (IC50) was determined as 0.119 µM.
On the same counts, the results for `CC1CCCN(C(=O)c2ccccc2-n2cnc(Cn3nc(-c4ccc(Cl)cc4)n(C[C@H](O)C(F)(F)F)c3=O)n2)C1` (mixture of isomers) [Example 351, 5-(4-Chlorophenyl)-2-{[1-(2-{[3-methylpiperidin-1-yl]carbonyl}phenyl)-1H-1,2,4-triazol-3-yl]methyl}-4-[(2S)-3,3,3-trifluoro-2-hydroxypropyl]-2,4-dihydro-3H-1,2,4-triazol-3-one] are 0.0027 µM, 351.9 and 0.95 µM.
On the same counts, the results for `CC1CCCN1C(=O)c1ccccc1-n1cnc(Cn2nc(-c3ccc(Cl)cc3)n(C[C@H](O)C(F)(F)F)c2=O)n1` (mixture of isomers) [Example 355, 5-(4-Chlorophenyl)-2-{[1-(2-{[2-methylpyrrolidin-1-yl]carbonyl}phenyl)-1H-1,2,4-triazol-3-yl]methyl}-4-[(2S)-3,3,3-trifluoro-2-hydroxypropyl]-2,4-dihydro-3H-1,2,4-triazol-3-one] are 0.00175 µM, 362.9 and 0.635 µM.
On the same counts, the results for `O=C(NC1CC1F)c1ccccc1-n1cnc(Cn2nc(-c3ccc(Cl)cc3)n(C[C@H](O)C(F)(F)F)c2=O)n1` (mixture of isomers) [Example 364, 2-[3-({3-(4-Chlorophenyl)-5-oxo-4-[(2S)-3,3,3-trifluoro-2-hydroxypropyl]-4,5-dihydro-1H-1,2,4-triazol-1-yl}methyl)-1H-1,2,4-triazol-1-yl]-N-(2-fluorocyclopropyl)benzamide] are 0.00047 µM, 329.8 and 0.155 µM.
As to `O=C(NCC(O)C(F)(F)F)c1cccc(Cl)c1-n1cnc(Cn2nc(-c3ccc(Cl)cc3)n(C[C@H](O)C(F)(F)F)c2=O)n1` (mixture of isomers) [Example 367, 3-Chloro-2-[3-({3-(4-chlorophenyl)-5-oxo-4-[(2S)-3,3,3-trifluoro-2-hydroxypropyl]-4,5-dihydro-1H-1,2,4-triazol-1-yl}methyl)-1H-1,2,4-triazol-1-yl]-N-[3,3,3-trifluoro-2-hydroxypropyl]benzamide], at human V1a receptor, the half-inhibitory concentration (IC50) is 0.045 µM and the “ratio IC50 hV2/hV1a” value is given as 5.8. Moreover, the IC50 on human V2 receptor is 0.26 µM.
On the same counts, the results for `O=C(NCC(O)C(F)(F)F)c1cccc(Cl)c1-n1cnc(Cn2nc(-c3ccc(Cl)cc3)n(C[C@@H](O)C(F)(F)F)c2=O)n1` (mixture of isomers) [Example 368, 3-Chloro-2-[3-({3-(4-chlorophenyl)-5-oxo-4-[(2R)-3,3,3-trifluoro-2-hydroxypropyl]-4,5-dihydro-1H-1,2,4-triazol-1-yl}methyl)-1H-1,2,4-triazol-1-yl]-N-[3,3,3-trifluoro-2-hydroxypropyl]benzamide] are 0.35 µM, 6.0 and 2.1 µM.
Regarding `O=C(NC1CC1(F)F)c1cccc(Cl)c1-n1cnc(Cn2nc(-c3ccc(Cl)cc3)n(C[C@H](O)C(F)(F)F)c2=O)n1` (mixture of isomers) [Example 371, 3-Chloro-2-[3-({3-(4-chlorophenyl)-5-oxo-4-[(2S)-3,3,3-trifluoro-2-hydroxypropyl]-4,5-dihydro-1H-1,2,4-triazol-1-yl}methyl)-1H-1,2,4-triazol-1-yl]-N-[2,2-difluorocyclopropyl]benzamide], on human V1a receptor, the concentration for half-maximal inhibition (IC50) is 0.015 µM and the “ratio IC50 hV2/hV1a” value turned out to be 47.3. The concentration for half-maximal inhibition (IC50) on human V2 receptor worked out at 0.71 µM.

As a reminder, the IC50 is the point on the concentration scale where inhibition reaches its midpoint.
